Tests used:
[1] = biological target: human GST-USP22 with Sgf11, Sgf73 1-105 and Sus1 (Homo sapiens, UniProt Q9UPT9); experiment: in vitro USP22 deubiquitination assay (re-constructed deubiquitination module); type: biochemical; details: for IC50: customized deubiquitination assay, human GST-USP22 with Sgf11, Sgf73 1-105, Sus1, read-out: IC50 in suppressing USP22 in vitro catalytic activity
Description: (A) The chemical structure of S02-S106 11-((4-cyanophenyl)amino)-7,8,9,10-tetrahydrobenzo(4,5)imidazole[1,2-b]isoquinoline-6-carbonitrile, (B & C) The efficacy of USP22i-S02 analogs in inhibiting USP22 catalytic activity was determined in vitro. The representative data from a triplicate analysis of S02-S106 with S02 as a control are shown (B). The IC50 of USP22i-S02 analogs in suppressing USP22 in vitro catalytic activity are shown (C). NA, not available.
We purchased human recombinant Sgf11 and Sgf73 1-105 and Sus1 proteins from R&D Systems Inc, and re-constructed the deubiquitination activity with our human GST-USP22. The USP22 customized deubiquitination was optimized and used for in vitro screening the activity of synthetic USP22i-s02 analogs with the USP22i-s02 as a control (FIG. 12).

[2] = tested on: PD-L1 expression in A549 cells; experiment: PD-L1 expression in A549 cells by flow cytometry; type: cell-based, human
Description: FIG. 13: The effects of USP22i-S02-S106 on suppression of PD-L1 expression on human lung adenocarcinoma cells. Human […] lung adenocarcinoma A549 cells were treated with S02-S106 or its lead compound S02 for 48 hours. The expression levels of PD-L1 were determined by flow cytometry. (A) Representative flow data from A549 cells treated with 2 μM S02-S106 or with 15 μM S02 are shown. DMSO treated cells were used as an untreated control and USP22 CRISPR knockout A549 cells were used as a positive control. (B) The dose-dependent inhibition of PD-L1 expression in A549 cells by S02-S106 with USP22i-S02 as a control. Data were normalized with PD-L1 expression levels in USP22-KO cells as 100% of USP22 inhibition as shown in A. (C) Inhibition of PD-L1 expression in WT and USP22-null A549 cells by S02-S106.
We then used PD-L1 expression level as a measurement to evaluate the inhibitory efficacy of USP22 by S02-S106.
To determine the specificity of USP22i-S02-S106, we treated the WT and USP22-null lung cancer cells.

[3] = tested on: polarized CD4+ T-regulatory cells; experiment: cytotoxicity in polarized CD4+ T-regulatory cells; type: cell-based, murine; details: for cytotoxicity to Tregs: 156 ng/mL to 5 ug/mL, compared to DMSO controls; for toxicity: Example 5, no concentration given
Description: FIG. 2: Cytotoxicity of compounds from 156 ng/mL to 5 ug/mL concentration range in polarized CD4+ T-regulatory cells. Murine CD4+ T-cells were isolated and polarized in vitro to T-regulatory cells using 5 ng/mL IL-2, 2 μg/mL anti-IL-4, 2 μg/mL anti-IFNγ, and 1 ng/mL TGFβ. After 48 hours, the inhibitors were added to the cells.
We then synthesized all 17 compounds and validated their cytotoxicity to regulatory T cells. To this end, mouse CD4 T cells were polarized to FoxP3 Tregs for two days, followed by treatment of the cells with each of the compounds at the doses upto 5 ug/ml. […] In addition, the rest of the compounds had poor solubility in DMSO, and were not further tested.

[4] = tested on: FoxP3 expression in CD4+ natural T-regulatory cells; experiment: FoxP3 expression in natural T-regulatory cells by flow cytometry; type: cell-based, murine
Description: FIGS. 3 and 4: Change in FoxP3 expression in murine CD4+ natural T-regulatory cells. Murine lymphocytes were isolated from the spleens and lymph nodes and cultured with varying concentrations of inhibitor (0.25 μg/mL to 2 μg/mL) or DMSO, anti-CD3, anti-CD28, TGFβ, and IL-2. After two days, lymphocytes were analyzed by flow cytometry for FoxP3 expression in natural T-regulatory (nTregs) gated on CD3+CD4+CD25+FoxP3+. (FIG. 3) Representative histograms of FITC::FoxP3 MFI in nTregs cultured with inhibitors at a concentration of 2 μg/mL. (FIG. 4) Representative plot of FITC::FoxP3 geometric MFI in nTregs across different concentrations of inhibitor.
We then analyzed whether treatment of Tregs with the compounds S106, 107 and 110 inhibits USP22 activity in Tregs as measured by FoxP3 expression levels by flow cytometry.

Chain of human GST-USP22 with Sgf11, Sgf73 1-105 and Sus1 (Q9UPT9 whole entry): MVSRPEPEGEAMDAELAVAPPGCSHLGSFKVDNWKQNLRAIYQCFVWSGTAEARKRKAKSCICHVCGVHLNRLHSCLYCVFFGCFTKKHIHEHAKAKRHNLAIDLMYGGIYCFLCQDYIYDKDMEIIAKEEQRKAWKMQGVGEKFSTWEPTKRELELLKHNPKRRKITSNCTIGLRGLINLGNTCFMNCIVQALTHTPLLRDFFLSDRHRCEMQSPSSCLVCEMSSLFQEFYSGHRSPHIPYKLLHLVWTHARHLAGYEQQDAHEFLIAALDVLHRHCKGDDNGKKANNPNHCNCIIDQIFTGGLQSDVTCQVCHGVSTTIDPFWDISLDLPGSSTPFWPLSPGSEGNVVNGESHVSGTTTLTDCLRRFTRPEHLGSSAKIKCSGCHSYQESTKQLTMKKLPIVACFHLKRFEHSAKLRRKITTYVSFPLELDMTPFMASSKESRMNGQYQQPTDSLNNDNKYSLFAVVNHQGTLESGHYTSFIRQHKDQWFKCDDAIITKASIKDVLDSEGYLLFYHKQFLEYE
Chain of human GST-USP22 with Sgf11, Sgf73 1-105 and Sus1 (Q14CW9 whole entry partner): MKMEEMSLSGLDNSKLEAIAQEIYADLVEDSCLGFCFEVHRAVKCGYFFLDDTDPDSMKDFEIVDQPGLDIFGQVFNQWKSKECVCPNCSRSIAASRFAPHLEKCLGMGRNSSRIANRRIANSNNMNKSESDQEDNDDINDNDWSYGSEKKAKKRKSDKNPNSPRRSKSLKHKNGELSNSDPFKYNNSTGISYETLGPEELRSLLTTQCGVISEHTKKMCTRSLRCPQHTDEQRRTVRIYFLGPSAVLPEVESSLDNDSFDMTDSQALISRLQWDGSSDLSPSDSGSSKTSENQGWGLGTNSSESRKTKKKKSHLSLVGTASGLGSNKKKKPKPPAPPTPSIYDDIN
Chain of human GST-USP22 with Sgf11, Sgf73 1-105 and Sus1 (O15265 1-105 partner limits assumed): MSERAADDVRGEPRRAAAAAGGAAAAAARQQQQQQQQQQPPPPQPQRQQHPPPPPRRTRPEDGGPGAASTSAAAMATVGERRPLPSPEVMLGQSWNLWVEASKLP
Chain of human GST-USP22 with Sgf11, Sgf73 1-105 and Sus1 (Q9NPA8 whole entry partner): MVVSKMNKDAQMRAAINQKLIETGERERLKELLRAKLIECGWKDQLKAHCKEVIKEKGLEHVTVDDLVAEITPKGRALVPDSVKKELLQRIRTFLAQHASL

N#Cc1ccc(Nc2c3c(c(C#N)c4nc5ccccc5n24)CCCC3)cc1 [Compound S02-S106, 11-((4-cyanophenyl)amino)-7,8,9,10-tetrahydrobenzo(4,5)imidazole[1,2-b]isoquinoline-6-carbonitrile]
IC50 [1]: 600 nM
improvement of USP22i-S02 inhibitory activity ([1]; cyano group at R1 position of E ring, versus USP22i-S02): at least 8 folds
USP22 inhibitory activity relative to USP22i-S02 ([1]; in vitro deubiquitination assay): most potent USP22 inhibitory activity
improvement of inhibitory efficacy ([1]; versus S02, in vitro and cell-based studies collectively): 4-8 folds
efficacy in suppressing PD-L1 expression ([2]; A549 cells, S02-S106 at 2 μM versus S02 at 15 μM): better efficacy than S02 at 15 μM
IC50 ([2]; Homo sapiens, A549 cells, 48 hours, read-out: IC50 inhibition of PD-L1 expression): ~3200 nM
PD-L1 expression in USP22-null A549 cells ([2]; USP22-null A549 cells): did not further reduce PD-L1 expression
PD-L1 expression in WT A549 cells ([2]; WT A549 cells): dramatically inhibited PD-L1 expression to a level comparable to that of USP22-null A549 cells
cytotoxicity to Tregs [3]: least cytotoxicity
toxicity [3]: without increasing its toxicity
toxicity ([3]; listed as USP22i-S02-S106): without increasing the cytotoxicity
decrease of FoxP3 expression in nTregs ([4]; 2 μg/mL, two days): higher efficacy compared to usp22i-s02
FoxP3 expression levels in Tregs ([4]; concentration of 1-2 ug): dose dependently reduced

N#Cc1c2c(c(Nc3ccc(CN)cc3)n3c1nc1ccccc13)CCCC2 [Compound S02-S113, (11-((4-aminomethyl)phenyl)amino)-7,8,9,10-tetrahydrobenzo(4,5)imidazole[1,2-b]isoquinoline-6-carbonitrile]
IC50 [1]: 300 nM
cytotoxicity to Tregs [3]: modest toxicity
toxicity [3]: highly toxic

Cn1c2nc3ccccc3c-2c(Nc2ccccc2)c2ccccc21 [Compound S201, N5-methyl-N-phenyl-5H-indolo[2,3-b]quinolin-11-amine]
cytotoxicity to Tregs [3]: extremely toxic

N,5-dimethyl-5H-indolo[2,3-b]quinolin-11-amine compound with anisole [Compound S202]
cytotoxicity to Tregs [3]: extremely toxic

Reference: patent US12624031B2, “Inhibitors of ubiquitin specific peptidase 22 (USP22) and uses thereof for treating diseases and disorders” (Northwestern University, priority 2022, dated 2026)
